Earlier results on one compound are cited in EP4729055A1, “TREATMENT OF DISORDERS USING SPHINGOSINE-1-PHOSPHATE RECEPTOR MODULATORS” (The Provost, Fellows, Foundation Scholars, & the other …, priority 2024, dated 2026).

Each structure is given as a SMILES string.

For the compound `CCCCCCCCc1ccc(CCC(N)(CO)CO)cc1` [fingolimod, 2-Amino-2-[2-(4-octylphenyl)ethyl]propane-1,3-diol], the log P (commonly a log measure of how a compound divides between an organic and an aqueous phase) is 5.5.
